Results reported in patent publication US20060223792A1, “Phenyl and pyridyl LTA4H modulators” (priority 2005, published 2006).
Where a name gives a salt, the structure may show the parent alone.

target: T1, recombinant human LTA4 hydrolase (rhLTA4H) (Homo sapiens, UniProt P09960); assay: Recombinant human LTA4 hydrolase assay for LTA4 hydrolase inhibitor activity; format: biochemical; settings: not given
T1 construct: made in house; host or cells: Spodoptera frugiperda (Sf-9) cells, baculovirus (pFastBac1)
T1 sequence (P09960 1-611): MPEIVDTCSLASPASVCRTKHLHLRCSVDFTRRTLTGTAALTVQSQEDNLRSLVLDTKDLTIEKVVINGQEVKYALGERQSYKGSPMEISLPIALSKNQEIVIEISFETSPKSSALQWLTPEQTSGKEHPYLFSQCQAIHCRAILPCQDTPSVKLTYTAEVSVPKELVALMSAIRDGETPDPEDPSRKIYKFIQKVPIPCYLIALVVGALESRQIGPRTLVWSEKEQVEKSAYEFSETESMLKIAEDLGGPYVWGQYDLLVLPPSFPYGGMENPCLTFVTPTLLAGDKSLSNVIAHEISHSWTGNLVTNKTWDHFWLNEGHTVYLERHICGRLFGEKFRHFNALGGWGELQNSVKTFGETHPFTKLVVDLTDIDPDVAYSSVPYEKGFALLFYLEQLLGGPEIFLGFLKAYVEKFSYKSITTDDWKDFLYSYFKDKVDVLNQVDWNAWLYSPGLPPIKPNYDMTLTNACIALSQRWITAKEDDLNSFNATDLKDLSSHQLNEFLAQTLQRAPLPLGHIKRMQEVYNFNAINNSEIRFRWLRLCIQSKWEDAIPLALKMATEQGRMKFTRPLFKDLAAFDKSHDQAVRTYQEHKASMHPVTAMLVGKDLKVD
Procedure: Recombinant Human LTA4 Hydrolase Assay for LTA4 Hydrolase Inhibitor Activity
Compounds of the present invention were tested for LTA4 hydrolase inhibitor activity against recombinant human LTA4 hydrolase (rhLTA4H). Vectors were prepared and used to express rhLTA4H essentially as follows: LTA4 hydrolase encoding DNA was amplified by polymerase chain reaction (PCR) using a human placental cDNA library as a template. Oligonucleotide primers for the PCR reaction were based on the 5′-end, and the complement of the 3′-end, of the published nucleotide sequence for the coding region of the human LTA4 hydrolase gene (C. D. Funk et al., Proc. Natl. Acad. Sci. USA 1987, 84:6677-6681). The amplified […] DNA fragment encoding LTA4 hydrolase was isolated and cloned into the pFastBac1 vector (Invitrogen). Recombinant baculovirus was generated as described by the manufacturer, and used to infect Spodoptera frugiperda (Sf-9) cells. Recombinant LTA4 hydrolase enzyme was purified from the infected Sf-9 cells essentially as described by J. K. Gierse et al. (Protein Expr. Purif. 1993, 4(5):358-366). The purified enzyme solution was adjusted to contain 0.29 mg/mL LTA4 hydrolase, 50 mM Tris (pH 8.0),150 mM NaCl, 5 mM dithiothreitol, 50% glycerol, and EDTA-free Complete protease inhibitor cocktail (Roche). The specific activity of the enzyme was about 3.8 μmol/min/mg.
LTA4 substrate was prepared from the methyl ester of LTA4 (Cayman Chemical) by treatment with 67 equiv. of NaOH under nitrogen at rt for 40 min. The LTA4 substrate in its free acid form was kept frozen at −80° C. until needed. Each compound was diluted to different concentrations in assay buffer (0.1 M potassium phosphate (pH 7.4), 5 mg/mL fatty acid free BSA) containing 10% DMSO. A 25-μL aliquot of each compound dilution was incubated for 10 min at rt with an equal volume of assay buffer containing 36 ng of recombinant human LTA4H. The solution was then adjusted to 200 μL with assay buffer. LTA4 (free acid) was thawed and diluted in assay buffer to a concentration of 357 ng/mL, and 25 μL (9 ng) of LTA4 substrate was added to the reaction mixture (total volume=225 μL) at time zero. Each reaction was carried out at rt for 10 min. The reaction was stopped by diluting 10 μL of the reaction mixture with 200 μL of assay buffer. LTB4 was quantifiedin the diluted sample by a commercially available enzyme-linked immunoassay (Cayman Chemical Co.), as recommended by the manufacturer. Positive controls, under essentially identical conditions but without addition of an inhibitor compound, and negative controls, containing all assay components except enzyme, were routinely run in each experiment. IC50 values were determined by fitting the activity data at different compound concentrations to a 4-parameter equation using the Grafit program (Erithacus software).
The IC50 values presented in the table below should be expected to fall within the typical three-fold variability of assays of this type. The values presented here are, in general, an average of one to three determinations.

| SMILES | IC50 [nM] |
| --- | --- |
| O=C(Nc1ccc(OCCN2CCCCC2)cc1)Oc1ccccc1 [Example 14, [4-(2-Piperidin-1-yl-ethoxy)-phenyl]-carbamic acid phenyl ester hydrochloride] | 1790 |
| CCCN(CCCc1ccc(OC(=O)Nc2ccccc2)cc1)CC1CC1 [Example 38, Phenyl-carbamic acid 4-[3-(cyclopropylmethyl-propyl-amino)-propyl]-phenyl ester hydrochloride] | 6 |

same assay, conditions: recombinant human LTA4H, LTB4 quantified by enzyme-linked immunoassay; average of one to three determinations; read-out: IC50

| SMILES | IC50 [nM] |
| --- | --- |
| CCOC(=O)C1CCN(CCOc2ccc(OC(=O)N(C)c3cccc(O)c3)cc2)CC1 [Example 8, 1-(2-{4-[(3-Hydroxy-phenyl)-methyl-carbamoyloxy]-phenoxy}-ethyl)-piperidine-4-carboxylic acid ethyl ester] | 100 |
| CN(C(=O)Oc1ccc(OCCN2CCC(C(=O)O)CC2)cc1)c1cccc(O)c1 [Example 9, 1-(2-{4-[(3—hydroxy-phenyl)-methyl-carbamoyloxy]-phenoxy}-ethyl)-piperidine-4-carboxylic acid] | 389 |
| CN(C)C(=O)Oc1ccc(OCCN2CCC(O)(c3ccccc3)CC2)cc1 [Example 10, Dimethyl-carbamic acid 4-[2-(4-hydroxy-4-phenyl-piperidin-1-yl)-ethoxy]-phenyl ester] | 52 |
| O=C(Nc1ccccc1)OCc1ccc(OCCN2CCCCC2)cc1 [Example 16, Phenyl-carbamic acid 4-(2-piperidin-1-yl-ethoxy)-benzyl ester] | 352 |
| O=C(Nc1ccccc1)Oc1ccc(CCN2CCC(O)(c3ccccc3)CC2)cc1 [Example 17, Phenyl-carbamic acid 4-[2-(4-hydroxy-4-phenyl-piperidin-1-yl)-ethyl]-phenyl ester] | 33 |
| CCOC(=O)C1CCCN(C2CCN(CCc3ccc(OCCc4ccccc4)cc3)CC2)C1 (centres unmarked) [Example 18, 1′-[2-(4-Phenethyloxy-phenyl)-ethyl]-[1,4]′bipiperidinyl-3-carboxylic acid ethyl ester] | 100 |
| O=C(O)C1CCCN(C2CCN(CCc3ccc(OCCc4ccccc4)cc3)CC2)C1 (centres unmarked) [Example 19, 1′-[2-(4-Phenethyloxy-phenyl)-ethyl]-[1,4′]bipiperidinyl-3-carboxylic acid] | 223 |
| O=C(Oc1ccccc1)Oc1ccc(OCCN2CCCCC2)cc1 [Example 20, Carbonic acid phenyl ester 4-(2-piperidin-1-yl-ethoxy)-phenyl ester] | 1 |
| O=C(Cc1ccccc1)Oc1ccc(OCCN2CCCCC2)cc1 [Example 21, Phenyl-acetic acid 4-(2-piperidin-1-yl-ethoxy)-phenyl ester] | 1 |
| CC(C(=O)Oc1ccc(OCCN2CCCCC2)cc1)c1ccccc1 (centres unmarked) [Example 22, 2-Phenyl-propionic acid 4-(2-piperidin-1-yl-ethoxy)-phenyl ester] | 21 |
| O=C(Oc1ccc(OCCN2CCCCC2)cc1)c1cc2ccccc2[nH]1 [Example 23, 1H-Indole-2-carboxylic acid 4-(2-piperidin-1-yl-ethoxy)-phenyl ester] | 75 |
| O=C(COc1ccc(CCN2CCC(N3CCCCC3=O)CC2)cc1)c1ccccc1 [Example 26, 1′-{2-[4-(2-Oxo-2-phenyl-ethoxy)-phenyl]-ethyl}-[1,4′]bipiperidinyl-2-one] | 343 |
| O=C1CCCCN1C1CCN(CCc2ccc(OCC(O)c3ccccc3)cc2)CC1 (centres unmarked) [Example 27, 1′-{2-[4-(2-Hydroxy-2-phenyl-ethoxy)-phenyl]-ethyl}-[1,4′]bipiperidinyl-2-one] | 4 |
| Oc1cccc(CCOc2ccc(OCCN3CCCCC3)cc2)c1 [Example 28, 3-{2-[4-(2-Piperidin-1-yl-ethoxy)-phenoxy]-ethyl}-phenol] | 22 |
| N#CC1CCN(CCc2ccc(OCCc3ccccc3)cc2)CC1 [Example 29, 1-[2-(4-Phenethyloxy-phenyl)-ethyl]-piperidine-4-carbonitrile] | 55 |
| c1ccc(CCOc2ccc(CCN3CCC(c4c[nH]nn4)CC3)cc2)cc1 [Example 31, 1-[2-(4-Phenethyloxy-phenyl)-ethyl]-4-(1H-[1,2,3]triazol-4-yl)-piperidine] | 33 |
| c1ccc(CCOc2ccc(CCNC3CC3)cc2)cc1 [Example 32, Cyclopropyl-[2-(4-phenethyloxy-phenyl)-ethyl]-amine] | 177 |
| N#CCCCN(CCc1ccc(OCCc2ccccc2)cc1)C1CC1 [Example 33, 4-{Cyclopropyl-[2-(4-phenethyloxy-phenyl)-ethyl]-amino}-butyronitrile] | 49 |
| O=C(Nc1ccccc1)Oc1ccc(CCCN2CCC(O)(c3ccccc3)CC2)cc1 [Example 36, Phenyl-carbamic acid 4-[3-(4-hydroxy-4-phenyl-piperidin-1-yl)-propyl]-phenyl ester] | 5 |
| O=C(Nc1ccccc1)Oc1ccc(CCCN2CCCCC2)cc1 [Example 37, Phenyl-carbamic acid 4-(3-piperidin-1-yl-propyl)-phenyl ester] | 15 |
| O=C(Nc1ccc(O)cc1)Oc1ccc(OCCN2CCC(O)(c3ccccc3)CC2)cc1 [Example 39, (4—hydroxy-phenyl)-carbamic acid 4-[2-(4-hydroxy-4-phenyl-piperidin-1-yl)-ethoxy]-phenyl ester] | 0.4 |
| CCCC1CCN(CCOc2ccc(OC(=O)Nc3ccccc3)cc2)CC1 [Example 41, Phenyl-carbamic acid 4-[2-(4-propyl-piperidin-1-yl)-ethoxy]-phenyl ester] | 1 |
| O=C(Nc1ccccc1)Oc1ccc(OCCCN2CCC(O)(c3ccccc3)CC2)cc1 [Example 42, Phenyl-carbamic acid 4-[3-(4-hydroxy-4-phenyl-piperidin-1-yl)-propoxy]-phenyl ester] | 1 |
| O=C(Nc1ccccc1F)Oc1ccc(OCCN2CCCCC2)cc1 [Example 43, (2-Fluoro-phenyl)-carbamic acid 4-(2-piperidin-1-yl-ethoxy)-phenyl ester] | 7 |
| O=C(Cc1ccc(OCCN2CCCCC2)cc1)Nc1ccccc1O [Example 44, N-(2—hydroxy-phenyl)-2-[4-(2-piperidin-1-yl-ethoxy)-phenyl]-acetamide] | 64 |
| O=C(Nc1cccc(Cl)c1)Oc1ccc(OCCN2CCCCC2)cc1 [Example 45, (3-Chloro-phenyl)-carbamic acid 4-(2-piperidin-1-yl-ethoxy)-phenyl ester] | 64 |
| CCN(CC)CCOc1ccc(OC(=O)Nc2ccccc2)cc1 [Example 46, Phenyl-carbamic acid 4-(2-diethylamino-ethoxy)-phenyl ester] | 7 |
| CCCN(CCOc1ccc(OC(=O)Nc2ccccc2)cc1)CC1CC1 [Example 49, Phenyl-carbamic acid 4-[2-(cyclopropylmethyl-propyl-amino)-ethoxy]-phenyl ester] | 4 |
| O=C(Nc1ccccc1)Oc1ccc(OCCN2CCC(Cc3ccccc3)CC2)cc1 [Example 50, Phenyl-carbamic acid 4-[2-(4-benzyl-piperidin-1-yl)-ethoxy]-phenyl ester] | 21 |
| O=C(Nc1ccccc1)Oc1ccc(OCCN2CCC(O)CC2)cc1 [Example 53, Phenyl-carbamic acid 4-[2-(4-hydroxy-piperidin-1-yl)-ethoxy]-phenyl ester] | 3 |
